The values below are quoted from earlier work in US8481518B2, “Quaternary antimuscarinic compounds for the treatment of bladder diseases” (University of Rochester, priority 2003, dated 2013).

Where a name gives a salt, the structure may show the parent alone.

For data set [1] the following is noted: intravesical instillation two to three times daily.
The conditions of data set [2]: oral, 5 mg/kg four times/day.
The conditions of data set [3]: generally 25 mg twice daily, adults with urge incontinence.
Data set [4] deals with all subtypes of human muscarinic receptors. To be noted: in vitro.

On to `COC(=O)C1=CC[C@@H]2CC[C@H]1N2C` [AEME, Anhydroecgonine methyl ester], for which the cholinergic agonist activity result in the data set on muscarinic receptors (guinea pig tracheal rings and detrusor muscle in vitro) is listed as “lacked cholinergic agonist activity”. Further, in the data set with muscarinic receptors (in vitro), the muscarinic antagonism entry is given as “potent non-competitive muscarinic antagonist”.
Take `CCN(CC)CC#CCOC(=O)C(O)(c1ccccc1)C1CCCCC1` (stereo not drawn) [oxybutynin, (4-diethylamino)2-butynyl-cc-cyclohexyl-a-hydroxybenzeneacetate HCl]: the “patients dropping out due to inability to tolerate catheterization or difficulty retaining drug solution” value in data set [1] is 21%. In data set [2], the “severe mouth dryness, subjects affected” value is 84%.
As to `CC(CC(c1ccccc1)c1ccccc1)NC(C)(C)C` (stereo not drawn) [terodiline], in data set [3], the “effect on micturition frequency and incontinence episodes” value is “reduced micturition frequency and incontinence episodes”.
Turning to `C[N+]1(C)[C@@H]2C[C@@H](OC(=O)C(O)(c3cccs3)c3cccs3)C[C@H]1[C@@H]1O[C@@H]12` [tiotropium bromide, 6β,7β,Epoxy-3α-[2-hydroxy-2,2-di(2-thienyl)acetoxy]-8,8-dimethyl-1αH,5αH-tropanium bromide], the “antagonism at all subtypes of human muscarinic receptors” value in data set [4] is 10-11 M.
